Measurements as given in US20240351966A1, “CLASS OF ALKYLPHENOL COMPOUNDS AND PREPARATION METHOD THEREFOR” (Shanghai Institute of Materia Medica, Chinese Academy of …, priority 2021, published 2024).

Target: DRAK2 (Homo sapiens (Human), UniProt O94768)
Experiment: Evaluation of DRAK2 inhibitory activity by ADP-Glo kinase assay
Format: biochemical
Conditions: ADP-Glo luminescent kinase assay
Text: To determine the inhibitory activity of compounds against kinases by the kinase assay kit ADP-GLO.
DRAK2 is a serine/threonine protein kinase. ADP Glo& #8482; Kinase Assay (ADP Glo& #8482; Kinase Assay Kit) is a luminescent kinase assay kit that can detect ADP formed during kinase reactions; this kit can firstly convert ADP into ATP, which is then captured by Ultra Glo& #8482, luciferase and ultimately converts into light. The emitted light signal is positively correlated with the corresponding ATP, thus through this method, the inhibitory activity of small molecule compounds on DRAK2 can be measured.
The compound was dissolved in DMSO before experiment to prepare stock solution.
When using, the stock solution was diluted with culture medium to a desired concentration.
• 1. 1 μl of compound was added to the well for each assay • 2. […] 2 μl of ATP was added to each well of the assay plate • 4. the plate was shook and centrifuged.
2.5 μl ADP-Glo™ reagent was add to terminate kinase reaction and consume unconsumed ATP, leaving only ADP and very low ATP background to incubate at room temperature for 60 minutes.
5 μl of kinase assay reagent was add to convert ADP to ATP, and luciferase and […] were introduced to detect ATP.
Envision was used to measure luminescence
• 1. Values were copied from Envision program
The “minimum” refers to the proportion of without enzyme control, while “maximum” refers to the proportion of DMSO control. • 3. GraphPad Prism 5.0 was used to process data
Through this method, the inhibitory activity of small molecule compounds on DRAK2 can be obtained.

Chain of DRAK2 (O94768 whole entry, species assumed): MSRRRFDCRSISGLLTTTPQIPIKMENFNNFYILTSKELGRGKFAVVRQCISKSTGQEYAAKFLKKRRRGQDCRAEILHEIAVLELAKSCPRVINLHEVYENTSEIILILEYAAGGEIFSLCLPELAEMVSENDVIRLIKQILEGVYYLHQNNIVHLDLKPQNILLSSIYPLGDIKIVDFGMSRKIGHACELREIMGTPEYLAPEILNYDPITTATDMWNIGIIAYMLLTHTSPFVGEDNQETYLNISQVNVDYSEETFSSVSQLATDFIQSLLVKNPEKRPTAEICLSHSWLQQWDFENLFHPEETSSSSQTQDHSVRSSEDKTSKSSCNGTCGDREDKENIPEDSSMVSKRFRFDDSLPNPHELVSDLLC

IC50 | SMILES
7.73 ± 0.7 µM | CCCCCCC=CCCCCCCCc1ccc(O)cc1O [Compound 1]
4.94 ± 1.18 µM | CCCCCCc1cccc(CCCc2cc(O)cc(O)c2)c1 [Compound 17]
4.06 ± 0.35 µM | CCCCCCc1cccc(CCCc2cc(O)cc(O)c2Cl)c1 [Compound 28]
4.93 ± 1.09 µM | CCCCCCc1cccc(CCCc2cc(O)cc(NS(=O)(=O)CC)c2)c1 [Compound 39]
